According to ChEMBL document CHEMBL5442175, “EUbOPEN Chemogenomics Library - PDSP Secondary Binding” (2024):

Legend:
[1] = molecular target: 5-hydroxytryptamine receptor 1D (Homo sapiens, UniProt P28221); test: (§1) PDSP Secondary Binding target: HTR1D - Compounds are tested at 10 uM concentration, plate are incubated at room temperature in the dark for 90 minutes. Reaction are stopped by vacuum filtration onto 0.3% polyethyleneimine soaked filter mats using Filtermate harvester. Scintillation cocktail is then melted onto microwave-dried filters on a hot plate and the radio activity is counted in Microbia counter.
[2] = molecular target: Sigma intracellular receptor 2 (Homo sapiens, UniProt Q5BJF2); test: as §1, with “TMEM97” for “HTR1D”
[3] = molecular target: Sigma non-opioid intracellular receptor 1 (Homo sapiens, UniProt Q99720); test: as §1, with “SIGMAR1” for “HTR1D”
[4] = molecular target: 5-hydroxytryptamine receptor 2B (Homo sapiens, UniProt P41595); test: as §1, with “HTR2B” for “HTR1D”
[5] = molecular target: T1, Alpha-2A adrenergic receptor (Homo sapiens, UniProt P08913); test: as §1, with “ADRA2A” for “HTR1D”
T1 sequence (P08913 whole entry): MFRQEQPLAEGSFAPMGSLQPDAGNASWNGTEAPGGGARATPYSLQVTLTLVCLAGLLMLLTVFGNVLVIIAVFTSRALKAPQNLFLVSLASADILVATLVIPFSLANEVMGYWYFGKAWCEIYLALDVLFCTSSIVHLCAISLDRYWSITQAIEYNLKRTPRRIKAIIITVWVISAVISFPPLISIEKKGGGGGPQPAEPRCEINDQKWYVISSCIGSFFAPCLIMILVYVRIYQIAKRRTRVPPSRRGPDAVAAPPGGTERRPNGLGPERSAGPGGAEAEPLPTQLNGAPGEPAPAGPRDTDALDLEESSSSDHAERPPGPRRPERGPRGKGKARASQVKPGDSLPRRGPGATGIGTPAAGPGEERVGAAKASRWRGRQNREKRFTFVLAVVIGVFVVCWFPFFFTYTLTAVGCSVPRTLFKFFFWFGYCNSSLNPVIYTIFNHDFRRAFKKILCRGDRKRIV

[6] = molecular target: T2, Alpha-2C adrenergic receptor (Homo sapiens, UniProt P18825); test: as §1, with “ADRA2C” for “HTR1D”
T2 sequence (P18825 whole entry): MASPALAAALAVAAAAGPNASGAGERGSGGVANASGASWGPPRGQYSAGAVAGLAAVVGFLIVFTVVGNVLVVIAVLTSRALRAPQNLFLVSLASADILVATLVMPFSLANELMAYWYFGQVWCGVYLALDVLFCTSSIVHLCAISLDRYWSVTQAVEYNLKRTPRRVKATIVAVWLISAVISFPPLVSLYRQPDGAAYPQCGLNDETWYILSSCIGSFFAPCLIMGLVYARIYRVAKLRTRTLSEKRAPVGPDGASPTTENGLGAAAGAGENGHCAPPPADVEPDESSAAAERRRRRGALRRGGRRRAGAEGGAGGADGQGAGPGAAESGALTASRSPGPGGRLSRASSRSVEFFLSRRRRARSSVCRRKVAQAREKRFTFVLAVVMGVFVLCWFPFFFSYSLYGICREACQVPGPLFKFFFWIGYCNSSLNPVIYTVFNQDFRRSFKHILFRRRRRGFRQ

[7] = molecular target: D(3) dopamine receptor (Homo sapiens, UniProt P35462); test: as §1, with “DRD3” for “HTR1D”
[8] = molecular target: T3, 5-hydroxytryptamine receptor 2C (Homo sapiens, UniProt P28335); test: as §1, with “HTR2C” for “HTR1D”
T3 sequence (P28335 whole entry): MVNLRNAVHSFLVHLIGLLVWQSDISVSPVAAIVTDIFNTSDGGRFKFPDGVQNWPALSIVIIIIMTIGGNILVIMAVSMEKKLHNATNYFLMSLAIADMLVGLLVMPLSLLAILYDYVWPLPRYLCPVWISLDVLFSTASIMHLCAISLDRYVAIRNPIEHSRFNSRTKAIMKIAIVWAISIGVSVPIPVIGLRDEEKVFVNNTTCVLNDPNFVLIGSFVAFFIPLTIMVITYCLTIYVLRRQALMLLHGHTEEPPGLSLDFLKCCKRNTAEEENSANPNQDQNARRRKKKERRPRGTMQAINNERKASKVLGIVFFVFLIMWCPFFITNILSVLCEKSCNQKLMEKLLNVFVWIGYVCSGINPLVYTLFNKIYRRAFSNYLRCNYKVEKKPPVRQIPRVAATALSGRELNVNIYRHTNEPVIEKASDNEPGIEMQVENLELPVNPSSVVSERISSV

[9] = molecular target: T4, Alpha-1A adrenergic receptor (Homo sapiens, UniProt P35348); test: as §1, with “ADRA1A” for “HTR1D”
T4 sequence (P35348 whole entry): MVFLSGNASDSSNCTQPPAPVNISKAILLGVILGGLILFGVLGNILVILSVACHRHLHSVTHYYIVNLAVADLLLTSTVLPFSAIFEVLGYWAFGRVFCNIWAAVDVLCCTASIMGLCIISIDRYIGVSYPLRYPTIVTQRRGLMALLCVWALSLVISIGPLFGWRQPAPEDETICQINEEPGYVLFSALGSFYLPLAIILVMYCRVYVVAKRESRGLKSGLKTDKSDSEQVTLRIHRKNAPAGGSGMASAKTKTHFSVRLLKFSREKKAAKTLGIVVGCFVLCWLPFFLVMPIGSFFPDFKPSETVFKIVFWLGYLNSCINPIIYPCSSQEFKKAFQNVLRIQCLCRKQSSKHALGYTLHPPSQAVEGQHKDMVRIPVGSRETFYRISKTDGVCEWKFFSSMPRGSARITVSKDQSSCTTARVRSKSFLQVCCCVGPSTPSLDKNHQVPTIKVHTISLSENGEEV

[10] = molecular target: Histamine H1 receptor (Homo sapiens, UniProt P35367); test: as §1, with “HRH1” for “HTR1D”
[11] = molecular target: 5-hydroxytryptamine receptor 2A (Homo sapiens, UniProt P28223); test: as §1, with “HTR2A” for “HTR1D”
[12] = molecular target: T5, 5-hydroxytryptamine receptor 3A (Homo sapiens, UniProt P46098); test: as §1, with “HTR3A” for “HTR1D”
T5 sequence (P46098 whole entry): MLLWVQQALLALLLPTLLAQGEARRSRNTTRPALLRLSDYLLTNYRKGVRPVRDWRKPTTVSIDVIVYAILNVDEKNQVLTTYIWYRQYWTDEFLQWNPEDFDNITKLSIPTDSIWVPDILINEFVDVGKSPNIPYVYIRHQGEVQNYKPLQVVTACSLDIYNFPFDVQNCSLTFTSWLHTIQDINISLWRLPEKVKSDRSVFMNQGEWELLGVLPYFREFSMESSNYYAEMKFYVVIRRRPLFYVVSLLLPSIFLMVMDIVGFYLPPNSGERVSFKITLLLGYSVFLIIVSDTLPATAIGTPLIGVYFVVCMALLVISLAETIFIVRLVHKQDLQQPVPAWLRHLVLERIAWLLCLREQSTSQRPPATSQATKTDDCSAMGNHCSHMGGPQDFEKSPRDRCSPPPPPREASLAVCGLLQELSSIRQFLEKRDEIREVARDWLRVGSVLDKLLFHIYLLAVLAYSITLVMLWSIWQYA

[13] = molecular target: T6, Muscarinic acetylcholine receptor M5 (Homo sapiens, UniProt P08912); test: as §1, with “CHRM5” for “HTR1D”
T6 sequence (P08912 whole entry): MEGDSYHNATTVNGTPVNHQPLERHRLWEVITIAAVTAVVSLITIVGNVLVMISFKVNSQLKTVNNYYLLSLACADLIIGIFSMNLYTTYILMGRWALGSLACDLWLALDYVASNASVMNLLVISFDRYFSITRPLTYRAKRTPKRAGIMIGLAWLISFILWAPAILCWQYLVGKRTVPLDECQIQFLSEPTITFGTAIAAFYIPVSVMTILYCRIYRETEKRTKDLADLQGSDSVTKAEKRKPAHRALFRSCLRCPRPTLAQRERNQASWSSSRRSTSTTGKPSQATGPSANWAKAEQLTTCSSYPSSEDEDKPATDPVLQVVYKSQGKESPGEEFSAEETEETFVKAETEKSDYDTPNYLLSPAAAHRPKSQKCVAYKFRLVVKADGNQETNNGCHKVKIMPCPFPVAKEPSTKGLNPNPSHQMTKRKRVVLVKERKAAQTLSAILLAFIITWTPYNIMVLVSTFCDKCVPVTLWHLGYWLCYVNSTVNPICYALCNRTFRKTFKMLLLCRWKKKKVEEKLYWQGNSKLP

[14] = molecular target: T7, 5-hydroxytryptamine receptor 1A (Homo sapiens, UniProt P08908); test: as §1, with “HTR1A” for “HTR1D”
T7 sequence (P08908 whole entry): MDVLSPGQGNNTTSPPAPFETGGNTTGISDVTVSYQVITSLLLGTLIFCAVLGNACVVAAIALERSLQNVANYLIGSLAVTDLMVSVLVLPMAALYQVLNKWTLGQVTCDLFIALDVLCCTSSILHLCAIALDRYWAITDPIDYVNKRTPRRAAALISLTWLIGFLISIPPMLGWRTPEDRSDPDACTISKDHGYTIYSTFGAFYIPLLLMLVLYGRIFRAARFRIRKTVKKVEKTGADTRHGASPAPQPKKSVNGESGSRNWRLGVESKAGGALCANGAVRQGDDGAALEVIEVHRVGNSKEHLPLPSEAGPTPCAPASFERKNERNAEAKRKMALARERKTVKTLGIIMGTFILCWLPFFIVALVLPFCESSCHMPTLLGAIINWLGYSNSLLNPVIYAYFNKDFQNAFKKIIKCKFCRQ

[15] = molecular target: 5-hydroxytryptamine receptor 1B (Homo sapiens, UniProt P28222); test: as §1, with “HTR1B” for “HTR1D”
[16] = molecular target: 5-hydroxytryptamine receptor 5A (Homo sapiens, UniProt P47898); test: as §1, with “HTR5A” for “HTR1D”
[17] = molecular target: 5-hydroxytryptamine receptor 7 (Homo sapiens, UniProt P34969); test: as §1, with “HTR7” for “HTR1D”
[18] = molecular target: T8, Alpha-2B adrenergic receptor (Homo sapiens, UniProt P18089); test: as §1, with “ADRA2B” for “HTR1D”
T8 sequence (P18089 whole entry): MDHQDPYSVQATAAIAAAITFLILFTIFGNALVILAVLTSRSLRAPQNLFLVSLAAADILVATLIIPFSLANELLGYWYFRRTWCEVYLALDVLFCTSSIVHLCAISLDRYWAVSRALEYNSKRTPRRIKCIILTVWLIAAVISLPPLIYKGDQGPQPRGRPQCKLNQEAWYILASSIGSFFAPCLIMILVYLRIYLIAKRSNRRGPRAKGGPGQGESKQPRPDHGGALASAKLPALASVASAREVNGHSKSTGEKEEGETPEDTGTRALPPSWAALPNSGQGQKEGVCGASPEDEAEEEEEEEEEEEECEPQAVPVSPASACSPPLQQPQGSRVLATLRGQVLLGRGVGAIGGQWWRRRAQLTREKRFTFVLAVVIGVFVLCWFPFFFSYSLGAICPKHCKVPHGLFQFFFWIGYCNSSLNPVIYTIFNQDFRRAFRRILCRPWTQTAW

Chain of 5-hydroxytryptamine receptor 1D (P28221 whole entry): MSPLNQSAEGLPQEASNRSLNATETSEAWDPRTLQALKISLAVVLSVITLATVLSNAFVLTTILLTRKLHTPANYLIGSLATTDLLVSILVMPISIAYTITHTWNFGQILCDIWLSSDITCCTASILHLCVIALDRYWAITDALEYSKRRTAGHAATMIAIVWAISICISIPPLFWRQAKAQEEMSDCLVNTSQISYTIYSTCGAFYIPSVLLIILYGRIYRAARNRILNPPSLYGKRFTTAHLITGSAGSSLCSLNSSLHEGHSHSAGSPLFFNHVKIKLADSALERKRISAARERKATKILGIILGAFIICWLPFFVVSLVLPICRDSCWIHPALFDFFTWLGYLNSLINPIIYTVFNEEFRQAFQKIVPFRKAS
Chain of Sigma non-opioid intracellular receptor 1 (Q99720 whole entry): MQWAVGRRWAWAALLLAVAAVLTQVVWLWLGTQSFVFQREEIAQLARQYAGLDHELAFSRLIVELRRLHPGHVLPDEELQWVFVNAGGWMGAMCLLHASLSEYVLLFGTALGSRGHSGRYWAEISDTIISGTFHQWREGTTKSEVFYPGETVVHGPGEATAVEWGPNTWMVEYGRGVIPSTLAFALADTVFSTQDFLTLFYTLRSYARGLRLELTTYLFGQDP
Chain of Sigma intracellular receptor 2 (Q5BJF2 whole entry): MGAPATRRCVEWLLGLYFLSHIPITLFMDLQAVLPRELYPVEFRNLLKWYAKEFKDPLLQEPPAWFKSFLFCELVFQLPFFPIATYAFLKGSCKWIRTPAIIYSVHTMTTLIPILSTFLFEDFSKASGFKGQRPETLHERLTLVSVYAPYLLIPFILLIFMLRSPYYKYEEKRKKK
Chain of 5-hydroxytryptamine receptor 7 (P34969 whole entry): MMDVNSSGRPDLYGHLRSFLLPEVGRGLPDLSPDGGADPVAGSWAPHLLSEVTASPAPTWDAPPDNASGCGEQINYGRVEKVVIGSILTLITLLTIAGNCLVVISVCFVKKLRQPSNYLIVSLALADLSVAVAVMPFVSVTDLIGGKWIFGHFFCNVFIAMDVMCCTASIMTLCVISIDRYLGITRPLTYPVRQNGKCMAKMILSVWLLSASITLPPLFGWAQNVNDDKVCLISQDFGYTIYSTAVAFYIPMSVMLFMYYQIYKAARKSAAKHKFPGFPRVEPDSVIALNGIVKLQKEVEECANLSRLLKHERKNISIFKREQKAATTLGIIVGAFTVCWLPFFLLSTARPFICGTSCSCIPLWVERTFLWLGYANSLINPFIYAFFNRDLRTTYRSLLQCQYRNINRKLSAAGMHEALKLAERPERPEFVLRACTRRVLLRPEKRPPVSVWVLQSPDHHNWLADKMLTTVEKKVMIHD
Chain of Histamine H1 receptor (P35367 whole entry): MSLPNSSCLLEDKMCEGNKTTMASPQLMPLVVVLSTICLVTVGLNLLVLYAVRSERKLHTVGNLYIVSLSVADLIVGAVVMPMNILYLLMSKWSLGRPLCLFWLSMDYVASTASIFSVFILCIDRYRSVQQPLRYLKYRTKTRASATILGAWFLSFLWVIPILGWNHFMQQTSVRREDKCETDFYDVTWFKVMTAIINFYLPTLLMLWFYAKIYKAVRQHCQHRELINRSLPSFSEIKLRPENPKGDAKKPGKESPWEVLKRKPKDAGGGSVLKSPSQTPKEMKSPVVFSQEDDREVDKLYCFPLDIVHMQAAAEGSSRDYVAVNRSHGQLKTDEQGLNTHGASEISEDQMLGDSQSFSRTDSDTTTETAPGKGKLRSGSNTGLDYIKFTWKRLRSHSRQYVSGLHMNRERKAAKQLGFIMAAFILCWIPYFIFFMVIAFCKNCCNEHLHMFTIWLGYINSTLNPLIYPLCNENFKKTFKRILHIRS
Chain of 5-hydroxytryptamine receptor 1B (P28222 whole entry): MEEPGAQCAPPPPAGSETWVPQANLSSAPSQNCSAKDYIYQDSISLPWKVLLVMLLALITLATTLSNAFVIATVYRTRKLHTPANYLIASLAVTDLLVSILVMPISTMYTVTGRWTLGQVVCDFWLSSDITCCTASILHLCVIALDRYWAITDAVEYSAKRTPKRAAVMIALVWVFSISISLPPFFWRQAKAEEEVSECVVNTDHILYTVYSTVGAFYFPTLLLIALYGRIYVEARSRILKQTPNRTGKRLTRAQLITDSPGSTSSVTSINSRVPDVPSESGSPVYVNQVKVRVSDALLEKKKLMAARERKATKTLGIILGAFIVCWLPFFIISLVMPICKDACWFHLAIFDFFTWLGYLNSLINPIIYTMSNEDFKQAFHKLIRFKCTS
Chain of D(3) dopamine receptor (P35462 whole entry): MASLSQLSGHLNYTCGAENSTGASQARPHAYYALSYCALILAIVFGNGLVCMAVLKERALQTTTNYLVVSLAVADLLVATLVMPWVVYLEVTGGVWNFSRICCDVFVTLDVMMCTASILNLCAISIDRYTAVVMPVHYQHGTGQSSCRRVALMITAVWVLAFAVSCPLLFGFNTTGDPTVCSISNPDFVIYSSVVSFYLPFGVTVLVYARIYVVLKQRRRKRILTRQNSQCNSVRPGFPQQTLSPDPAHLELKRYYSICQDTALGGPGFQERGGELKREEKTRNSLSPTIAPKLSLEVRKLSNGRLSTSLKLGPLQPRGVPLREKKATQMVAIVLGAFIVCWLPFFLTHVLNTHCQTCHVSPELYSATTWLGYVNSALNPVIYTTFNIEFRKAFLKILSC
Chain of 5-hydroxytryptamine receptor 2B (P41595 whole entry): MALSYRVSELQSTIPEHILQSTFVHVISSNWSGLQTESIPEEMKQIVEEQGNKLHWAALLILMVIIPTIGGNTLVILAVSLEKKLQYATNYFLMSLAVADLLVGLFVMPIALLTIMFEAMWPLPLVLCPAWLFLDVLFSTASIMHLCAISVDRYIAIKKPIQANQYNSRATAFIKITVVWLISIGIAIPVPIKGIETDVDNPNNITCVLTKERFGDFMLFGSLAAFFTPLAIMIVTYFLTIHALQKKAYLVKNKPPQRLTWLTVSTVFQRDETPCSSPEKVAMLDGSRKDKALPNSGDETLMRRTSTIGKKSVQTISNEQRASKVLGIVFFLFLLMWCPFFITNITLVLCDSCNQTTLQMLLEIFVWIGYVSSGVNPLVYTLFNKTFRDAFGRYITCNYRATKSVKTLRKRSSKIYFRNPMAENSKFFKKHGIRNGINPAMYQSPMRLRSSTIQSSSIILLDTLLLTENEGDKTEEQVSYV
Chain of 5-hydroxytryptamine receptor 2A (P28223 whole entry): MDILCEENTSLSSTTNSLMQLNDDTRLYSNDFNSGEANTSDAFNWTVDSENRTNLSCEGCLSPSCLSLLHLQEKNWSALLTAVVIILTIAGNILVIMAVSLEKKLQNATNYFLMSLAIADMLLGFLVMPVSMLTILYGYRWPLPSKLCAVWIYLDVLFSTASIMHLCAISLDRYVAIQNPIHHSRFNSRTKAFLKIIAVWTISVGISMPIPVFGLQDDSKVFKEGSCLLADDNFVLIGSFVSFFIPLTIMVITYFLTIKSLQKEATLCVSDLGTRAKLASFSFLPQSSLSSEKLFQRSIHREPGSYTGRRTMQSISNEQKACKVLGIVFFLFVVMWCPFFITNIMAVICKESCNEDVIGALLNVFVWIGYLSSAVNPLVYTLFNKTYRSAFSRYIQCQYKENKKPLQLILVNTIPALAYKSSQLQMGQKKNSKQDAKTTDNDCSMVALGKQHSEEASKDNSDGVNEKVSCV
Chain of 5-hydroxytryptamine receptor 5A (P47898 whole entry): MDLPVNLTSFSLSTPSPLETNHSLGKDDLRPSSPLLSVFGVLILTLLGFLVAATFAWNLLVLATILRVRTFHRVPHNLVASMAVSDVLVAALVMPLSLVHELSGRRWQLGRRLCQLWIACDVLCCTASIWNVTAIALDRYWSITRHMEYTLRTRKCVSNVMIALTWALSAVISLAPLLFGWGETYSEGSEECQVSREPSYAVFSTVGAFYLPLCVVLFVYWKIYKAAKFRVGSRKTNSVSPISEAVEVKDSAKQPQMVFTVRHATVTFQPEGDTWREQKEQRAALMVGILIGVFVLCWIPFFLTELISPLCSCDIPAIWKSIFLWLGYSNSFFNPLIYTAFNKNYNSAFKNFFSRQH

Ki [4]	Ki [6]	Ki [7]	Ki [8]	Ki [9]	Ki [10]	Ki [11]	Structure (SMILES)	Ki [1]	Ki [2]	Ki [3]	Ki [5]	Ki [12]	Ki [13]	Ki [14]	Ki [15]	Ki [16]	Ki [17]	Ki [18]
52 nM	673 nM	669 nM	635 nM	1850 nM	4660 nM	964 nM	CCCCN1CCC(COC(=O)c2cc(Cl)c(N)c3c2OCCO3)CC1	3780 nM	64.8 nM	31.7 nM	1530 nM	1310 nM	–	–	–	–	–	–
–	–	–	–	–	–	–	Cc1nn(C)c(C)c1-c1cccc2c1CC[C@H](N(C)C)C2	5.5 nM	1120 nM	158 nM	647 nM	261 nM	308 nM	2420 nM	10.2 nM	75.2 nM	2.3 nM	108 nM
